Here are results for one compound from patent US20190365927A1, “COMPOSITION FOR PHOTODYNAMIC THERAPY USING GENE EXPRESSING FLUORESCENT PROTEIN AND PHOTOSENSITIZER, AND PHOTODYNAMIC THERAPY METHOD USING SAME” (priority 2017, published 2019).

One assay relates to Lgr5+ cells. Briefly: cFRET PDT of colon polyps in azoxymethane/DSS-treated GFP-Lgr5 mice. It counts as in vivo, mouse. Particulars: FIG. 4E. The method, then:
To generate sporadic tumors, azoxymethane (10 mg/kg) was intraperitoneally injected into wild-type mice or GFP-Lgr5 mice. In one week after injection, mice were given 2% DSS as drinking water for 7 days. The next 7 days, the mice were given water normally. This DSS application cycle was repeated three times. Mice were randomly divided into 4 groups (n=5 per group).
Another group of 5 mice as wild-type and GFP-Lgr5 mice was set to a group that was not chemically treated. RB was intravenously injected (50 nM/mL, 0.75 ml/kg) into the wild type and GFP-Lgr5 mice of each experimental group twice a week for 7 weeks. And, in 4 hours after the RB injection, blue light (2 min) irradiation was performed via an anal penetration.
Polyp growth was monitored by endoscopy via polyp diameter measurements. After anesthesia, the mice were placed on the stage for colonoscopy. […] Each image was captured by capturing the image from the recorded video file using frame-extraction software. The tumor size was measured from the images (width×height×2). The distance-dependent magnification of the colonoscopy was calculated by imaging using a ruler in the same field.
To compare tumor sizes before and after FR-PDT, well-isolated tumors were selected. The locomotion path used in […] was recorded in detail for each tumor. The tumor location is determined based on the structure of the surrounding tissue. […]

Assay [1] deals with GFP+ A549, RFP+ A549 and YFP+ A549 cells. Briefly: In vitro PDT of GFP+, RFP+ and YFP+ cells with photosensitizer, MTT analysis. It counts as cell-based, human. Particulars: 1 μM, blue laser light (488 nm), FIG. 20. On the procedure: Photo inducing death of GFP+, RFP+, and YFP+ cells via the photosensitizer was measured by MTT analysis. The specific experimental procedure is as follows.
To investigate photo inducing death of GFP+ cells, RFP+ cells, and YFP+ cells via the photosensitizer, rose bengal, hematoporphyrin (Sigma-aldrich #5518) or 5-ALA (5-Aminolevulinic acid hydrochloric, Sigma-aldrich # A3785) was diluted with RPMI medium containing 10% FBS. 1 μM concentration of rose bengal, hematoporphyrin or 5-ALA was prepared. Further, GFP+ A549 cells, RFP+ A549 cells and YFP+ A549 cells selected from the 1-4 were pre-incubated at a density of 5×10^3 cells per well on 96-well, black, and clear bottom plates. A549 cells with pcDNA 3.1 vector injected thereto were cultured as control. Then, each of the photosensitizers as produced was applied or not applied to the preincubated cells in the preincubated cells which in turn were cultured for 4 hours. After 4 hours, the cells were washed three times with PBS buffer. Irradiation or non-irradiation of blue laser light (488 nm; radiation dose rate=2 J/cm^2) or yellow laser light (570 nm; radiation dose rate=2 J/cm^2) thereto was carried out for 5 seconds. After irradiation or non-irradiation, a fresh culture medium was added to the wells. The cells were cultured again for 24 hours. MTT analysis was then performed.

Another assay has as its system eGFP+-Lgr5+ cells. Briefly: Visualization of in vivo cell death with FLIVO probe. Particulars: Lgr5-EGFP-IRES-creERT2 knock-in mice, RB treatment and laser light irradiation. Also noted: species or system mouse. On the procedure:
To measure cell death in live animals, FLIVO™ probes were diluted with PBS containing 1% DMSO at doses according to animal weight. The fluorescent red probe FLIVO™ (Immunochemistry Technologies LLC, Abcys SA, Paris, France) was intravenously injected into wild type and GFP-Lgr5 mice. The mouse was euthanized after 1 hour and the colon tissue was separated therefrom. Fluorescent signals from FLIVO™ were imaged using a confocal microscope.

For a further assay, the system named is eGFP− 4T1 cells. Briefly: In vitro PDT with rose bengal and blue laser light, MTT analysis. Particulars: 473 nm laser light after RB treatment, similar conditions, FIG. 2A. In kind it is cell-based, Mus musculus. On the procedure: The photo inducing death of GFP− and GFP+ cells after blue light irradiation was measured by MTT analysis in the presence or absence of rose bengal (RB). The specific experimental procedure is as follows.
RB was diluted with DMEM containing 10% FBS to produce RB at concentrations of 6.25, 12.5, 25, 50, and 100 μM. GFP− and GFP+ cells were pre-incubated in 96-well, black, and clear bottom plates at a density of 2×10^4 cells per well. Then cells were incubated with RB for 4 hours. The addition of a fresh culture medium without photosensitizer to the wells was performed. This was used as an untreated control. Cells were washed 3 times with PBS buffer.
In the PDT-treated group, the cell was irradiated with blue laser light (473 nm, radiation dose rate=80 mW/cm^2) for 1 to 60 seconds. The toxicity of pure RB on GFP+ and GFP− cells was measured in the dark room. After the irradiation, the fresh culture medium was added to the wells, and cells were cultured again for 24 hours. The medium was then measured by MTT assay. […] The absorbance of the reaction solution was measured at 570 nm. Cell viability was calculated by the following equation: […]
Each experiment was performed independently. Cell death was measured by LDH analysis.
Th cells were seeded on a 24-well plate at a density of 5×10^4 per well. […] The absorbance was measured at 490 nm using a plate reader.

Take `O=C1OC2(c3cc(I)c(O)c(I)c3Oc3c2cc(I)c(O)c3I)c2c(Cl)c(Cl)c(Cl)c(Cl)c21` [RB, rose bengal]: the polyp growth result in the assay with Lgr5+ cells (Lgr5-EGFP-IRES-creERT2 knock-in mice compared to wild-type mice, 473 nm laser, 4F) is recorded as “polyp growth was inhibited”. Also, in the assay with Lgr5+ cells (cFRET treatment), the number of polyps entry is given as “decreased”. For the same compound, in assay [1], the “cell death effect, YFP+ versus GFP+ cell” value is recorded as “the cell death effect of the YFP+ cell is higher than that of GFP+ cell”. For the same compound, in the assay on eGFP+-Lgr5+ cells, the “cell death signal in eGFP+-Lgr5+ cell region versus adjacent low-GFP-expression region” value is “stronger”. Besides, in the assay on eGFP− 4T1 cells, the “eGFP− cells killed” value is reported as 20%.
